# Entries after “also recorded” stand apart in the source; their conditions may differ.
# Key:
# [1] = test system: epididymal sperm cells; test: Calcium imaging of mouse epididymal sperm cells with bitter tastants; type: cell-based; conditions: for calcium responses from the principal pieces / # CELLS RESPONDED / amplitudes of the responses from the acrosome and midpiece: epididymal sperm; for cells responding with calcium responses: 49 cells; for amplitudes of the responses from the acrosome and midpiece: subcellular areas
# Experimental: (§1) For isolation of epididymal spermatozoa, three incisions were made to the caudal epididymis, which was incubated in a 1.5-ml tube containing 1 ml of HS medium and 5 mg/ml bovine serum albumin (BSA) in a 5% CO2 incubator at 37° C. for 20 minutes (Xia et al., 2007). Sperm cells released into the medium were collected from top 0.1 ml, which were adjusted to 1×10^7 cells/ml HS medium.
# (§2) Mouse spermatogenic cells were loaded with 5 μM acetoxymethylester of Fura-2 (Fora-2/AM) and 80 μg/ml pluronic F127 (Molecular Probes, Eugene, Oreg.) and transferred onto coverslips (22×60 mm, No. 0, Thomas Scientific Co.) for at least 1 hour at room temperature. The coverslip with spermatogenic cells was mounted in a recording chamber and superfused with HS or HS containing tasting compounds or the bitter blocker probenecid (Sigma-Aldrich, St. Louis, Mo.) via a valve controller (VC-8, Warner, USA).
# (§3) Imaging of calcium responses was conducted as previously described (Gomez et al, 2005). Stimulation duration was 30 seconds and perfusion rate was 0.8 ml/min. Cells were excited at 340 nm and 380 nm and signals at 510 nm were captured by a cooled CCD camera. The change in fluorescence ratio (F=F340/F380) was recorded for regions-of-interest drawn on the cells.
# (§4) To analyze the dose-dependent calcium responses, the response intensity (FN) was normalized and expressed as ΔF/F0 value: ΔF/F0=(F−F0)/F0. Here F0 is the fluorescence at the beginning of stimulation, i.e., time 0, and F is the peak fluorescence ratio evoked by the stimulation. Dose-response curves and EC50 values were generated based on the normalized responses using the software Origins by nonlinear regression.
# [2] = target: human Tas2r38 (Homo sapiens, UniProt P59533); conditions: cited from earlier work
# [3] = test system: sperm isolated from the Gnat3−/−mutant mice; test: Calcium imaging of sperm from Gnat3−/− mutant mice; type: cell-based, mouse; conditions: 2 mM
# Experimental: (§5) Eight adult male mice of each genotype: C57BL/6 and Gnat^−/− mice, were sacrificed, and the testis and caudal epididymis were immediately removed and transferred into HS solution containing (mM): 135 NaCl, 5 KCl, 2 CaCl2, 1 MgCl2, 30 Hepes, 10 glucose, 10 lactic acid, and 1 pyruvic acid (pH adjusted to 7.4 with NaOH) (Xia et al., 2007). For isolation of spermatids, seminiferous tubules from mouse testicle were dissected out and placed in a […] containing 3 ml of HS medium. The tissue was finely minced and gently triturated with a fire-polished pipette, and the mixture was filtered with a 100 μm nylon cell strainer (BD Falcon, Bedford, Mass.). The dissociated cells were collected in a 1.5 ml plastic tube, and washed once in HS medium by centrifugation at 300 g for 4 min and resuspended in HS medium.
# as §1, §2, §3
# [4] = test system: mouse spermatids; test: Calcium imaging of mouse spermatids with bitter tastants; type: cell-based; conditions: for cells responding with increased intracellular calcium: 29 cells; for calcium response in the principal piece: compared with acrosome and midpiece; for increase in intracellular calcium, acrosome versus midpiece: subcellular areas; for number of cells responding: out of 29 cells
# Experimental: as §5, §2, §3, §4
# [5] = test system: C57B/6L wild-type sperm; test: Bitter blocker probenecid on calcium responses of wild-type mouse sperm; type: cell-based; conditions: 300 μM PTC alone
# Experimental: as §2, §3
# To confirm whether the germ cells' responses to bitter tastants were mediated by the bitter taste receptors, we examined the effect of the bitter taste receptor blocker probenecid (Greene et al, 2001) and nullification of the α-gustducin gene in Gnat3 α-gustducin knockout mice described in Wong et al, 1996. Probenecid is known to inhibit the responses of human T2R16, 38 and 43 to salicin, PTC and PROP, and aloin, but not that of T2R31 to saccharin (Greene et al, 2011).
# [6] = FIG. 6, epididymal sperm Cell 1
# [7] = FIG. 6, epididymal sperm Cell 3
# [8] = FIG. 6, epididymal sperm Cell 4
# [9] = response profile 1, total 49 cells
# [10] = response profile 2, total 49 cells
# [11] = response profile 3, total 49 cells
# [12] = response profile 4, total 49 cells
# [13] = response profile 5, total 49 cells
# [14] = response profile 7, total 49 cells
# [15] = response profile 8, total 49 cells
# [16] = response profile 10, total 49 cells
# [17] = spermatids, response profile 1, total 29 cells
# [18] = spermatids, response profile 3, total 29 cells
# [19] = spermatids, response profile 5, total 29 cells
# [20] = FIG. 6, epididymal sperm Cell 5
# [21] = response profile 6, total 49 cells
# [22] = response profile 9, total 49 cells
# [23] = spermatids, response profile 2, total 29 cells
# [24] = spermatids, response profile 4, total 29 cells
# [25] = response profile 11, total 49 cells
# [26] = spermatids, response profile 6, total 29 cells
Structure (SMILES),"calcium response of individual cell [1, 6]","calcium response of individual cell [1, 8]",calcium responses from the principal pieces [1],cells responding with calcium responses ([1]; epididymal sperm cells),"# CELLS RESPONDED [1, 9]","# CELLS RESPONDED [1, 10]","# CELLS RESPONDED [1, 11]","# CELLS RESPONDED [1, 12]","# CELLS RESPONDED [1, 13]","# CELLS RESPONDED [1, 14]","# CELLS RESPONDED [1, 15]",amplitudes of the responses from the acrosome and midpiece [1],calcium response of Gnat3−/− sperm [3],cells responding with increased intracellular calcium ([4]; spermatids),"# CELLS RESPONDED [4, 17]","# CELLS RESPONDED [4, 18]",calcium response in the principal piece ([4]; spermatids),"increase in intracellular calcium, acrosome versus midpiece ([4]; spermatids)","# CELLS RESPONDED [1, 21]","# CELLS RESPONDED [4, 23]",other results
"CCCc1cc(=O)[nH]c(=S)[nH]1 [PROP, 6-propyl-2 thiouracil]",responded,responded weakly,mostly undetectable,about 61.2%,4,13,1,1,4,1,1,equally strong,unresponsive; also recorded: did not respond,27.6%,3,1,–,–,–,–,"calcium response of individual cell [1, 7]: weakly; # CELLS RESPONDED [1, 16]: 5; EC50 ([2]; four responding variants of the receptor): 2 to 4 µM; response of receptor variants ([2]; two of six variants): unresponsive; EC50 ([4]; mouse spermatids, Fura-2 calcium imaging, normalized ΔF/F0, read-out: EC50 of calcium response): 24 ± 12 µM; # CELLS RESPONDED [4, 19]: 1; # CELLS RESPONDED ([4]; spermatids, response profile 9, total 29 cells): 3; calcium response at low concentrations ([4]; spermatids, 0.01, 0.1 and 1 μM): No responses"
Nc1ncnc2c1ncn2[C@@H]1O[C@H](COP(=O)(O)OP(=O)(O)OP(=O)(O)O)[C@@H](O)[C@H]1O [ATP],–,–,–,–,–,–,–,–,–,–,–,–,normal; also recorded: did respond,–,–,–,–,–,–,–,–
CCN(CC)CCNC(=O)c1ccc(N)cc1 [procainamide],–,–,–,–,–,–,–,–,–,–,–,–,–,–,–,–,detectable but much smaller,much larger in the acrosome than in the midpiece,–,–,–
C[C@@H]1C[C@@H]([C@H](O)CC2CC(=O)NC(=O)C2)C(=O)[C@@H](C)C1 [cycloheximide],responded,responded weakly,mostly undetectable,93.9%,4,13,1,1,4,1,–,equally strong,did not respond,62.1%,3,1,–,–,1,1,"calcium response of individual cell ([1]; FIG. 6, epididymal sperm Cell 2): responded only; calcium response of individual cell [1, 7]: responded; calcium response of individual cell [1, 20]: responded weakly; number of cells responding ([1]; epididymal sperm cells, out of 49 cells): 46; # CELLS RESPONDED [1, 22]: 1; # CELLS RESPONDED [1, 16]: 5; # CELLS RESPONDED ([1]; response profile 12, total 49 cells): 15; calcium response of Gnat3−/− sperm ([3]; listed as cyclohexmide): unresponsive; number of cells responding ([4]; spermatids): 18; # CELLS RESPONDED [4, 24]: 7; # CELLS RESPONDED [4, 19]: 1; # CELLS RESPONDED ([4]; spermatids, response profile 7, total 29 cells): 5"
OCc1ccccc1O[C@@H]1O[C@H](CO)[C@@H](O)[C@H](O)[C@H]1O [salicin],–,–,–,about 14.3%,4,–,1,1,–,–,–,–,unresponsive; also recorded: did not respond,–,–,–,–,–,–,–,"frequency of responsive cells ([1]; FIG. 6, epididymal sperm): rare; # CELLS RESPONDED ([1]; response profile 13, total 49 cells): 1; number of cells responding ([4]; spermatids): No spermatids were found to respond"
"NC(=S)Nc1ccccc1 [PTC, N-phenylthiourea]",responded,–,mostly undetectable,–,4,13,–,1,–,1,1,equally strong,unresponsive; also recorded: did not respond,–,3,1,detectable but much smaller,much larger in the acrosome than in the midpiece,1,1,"# CELLS RESPONDED [1, 25]: 1; # CELLS RESPONDED [4, 26]: 1; # CELLS RESPONDED ([4]; spermatids, response profile 10, total 29 cells): 3; increase in the intracellular calcium concentration [5]: significant"
CC[N+](CC)(CC(=O)Nc1c(C)cccc1C)Cc1ccccc1 [denatonium],responded,responded weakly,mostly undetectable,~53.1%,4,13,1,–,4,–,1,equally strong,unresponsive; also recorded: did not respond,55.2%,3,–,detectable but much smaller,much larger in the acrosome than in the midpiece,1,1,"calcium response of individual cell [1, 20]: responded weakly; # CELLS RESPONDED [1, 22]: 1; # CELLS RESPONDED [1, 25]: 1; # CELLS RESPONDED [4, 24]: 7; # CELLS RESPONDED [4, 26]: 1; # CELLS RESPONDED ([4]; spermatids, response profile 8, total 29 cells): 4"
